Patent US9056209B2, “Apigenin-containing composition” (Kao Corporation, priority 2009, dated 2015)

Assay: Evaluation of stability of apigenin in composition (apigenin retention ratio by HPLC)
Assay type: physicochemical
Details: for Apigenin retention ratio (amount of apigenin stored at 50° C./amount of apigenin stored at −5° C.): apigenin about 9 ppm, stored one month
Protocol: Twenty gram of Roman chamomile was extracted with 200 mL of 50% butanediol for 7 days at room temperature, and then the extract was filtered to obtain 155 mL of a Roman chamomile extract. The evaporation residue in 1 mL of the extract was 18.6 mg, and the amount of apigenin in 1 mL of the extract was 305 ppm. This extract was used as the apigenin-containing extract in the following experiments. BHT was added to each of the solutions of various pH conditions, in an amount of 0, 1, 10, 100 and 500 ppm, respectively, and thus test solutions (final apigenin concentration: about 9 ppm) were prepared. The respective test solutions were stored for one month under the conditions of −5° C. and 50° C., and then the amount of apigenin in each of the solutions was measured by HPLC (Inertsil ODS-3 (internal diameter 3.0 mm, length 150 mm, particle size 5 μm) manufactured by GL Sciences, Inc., eluent: 50% aqueous solution of 25 mM potassium dihydrogen phosphate/50% methanol, column temperature: 40° C., detection: UV 340 nm). The ratio of the amount of apigenin stored at 50° C. with respect to that stored at −5° C. was determined as the apigenin retention ratio.

apigenin retention ratio (in words) (mass ratio apigenin/BHT about 1 or greater, or pH of the solution less than 7, storage for a long time): high retention ratios were maintained
apigenin retention ratio (in words) (mass ratio apigenin/BHT about less than 1 (BHT 10 ppm or more) and pH 7 or higher): the apigenin retention ratio decreased
Apigenin retention ratio (amount of apigenin stored at 50° C./amount of apigenin stored at −5° C.) (pH 6, BHT 0 ppm): 103%
Apigenin retention ratio (amount of apigenin stored at 50° C./amount of apigenin stored at −5° C.) (pH 6, BHT 1 ppm): 102%
Apigenin retention ratio (amount of apigenin stored at 50° C./amount of apigenin stored at −5° C.) (pH 6, BHT 10 ppm): 98%
Apigenin retention ratio (amount of apigenin stored at 50° C./amount of apigenin stored at −5° C.) (pH 6, BHT 100 ppm): 96%
Apigenin retention ratio (amount of apigenin stored at 50° C./amount of apigenin stored at −5° C.) (pH 6, BHT 500 ppm): 96%
Apigenin retention ratio (amount of apigenin stored at 50° C./amount of apigenin stored at −5° C.) (pH 6.5, BHT 0 ppm): 100%
Apigenin retention ratio (amount of apigenin stored at 50° C./amount of apigenin stored at −5° C.) (pH 6.5, BHT 1 ppm): 94%
Apigenin retention ratio (amount of apigenin stored at 50° C./amount of apigenin stored at −5° C.) (pH 6.5, BHT 10 ppm): 98%
Apigenin retention ratio (amount of apigenin stored at 50° C./amount of apigenin stored at −5° C.) (pH 6.5, BHT 100 ppm): 96%
Apigenin retention ratio (amount of apigenin stored at 50° C./amount of apigenin stored at −5° C.) (pH 6.5, BHT 500 ppm): 99%
Apigenin retention ratio (amount of apigenin stored at 50° C./amount of apigenin stored at −5° C.) (pH 7, BHT 0 ppm): 96%
Apigenin retention ratio (amount of apigenin stored at 50° C./amount of apigenin stored at −5° C.) (pH 7, BHT 1 ppm): 96%
Apigenin retention ratio (amount of apigenin stored at 50° C./amount of apigenin stored at −5° C.) (pH 7, BHT 10 ppm): 98%
Apigenin retention ratio (amount of apigenin stored at 50° C./amount of apigenin stored at −5° C.) (pH 7, BHT 100 ppm): 82%
Apigenin retention ratio (amount of apigenin stored at 50° C./amount of apigenin stored at −5° C.) (pH 7, BHT 500 ppm): 35%
Apigenin retention ratio (amount of apigenin stored at 50° C./amount of apigenin stored at −5° C.) (pH 8, BHT 0 ppm): 98%
Apigenin retention ratio (amount of apigenin stored at 50° C./amount of apigenin stored at −5° C.) (pH 8, BHT 1 ppm): 99%
Apigenin retention ratio (amount of apigenin stored at 50° C./amount of apigenin stored at −5° C.) (pH 8, BHT 10 ppm): 91%
Apigenin retention ratio (amount of apigenin stored at 50° C./amount of apigenin stored at −5° C.) (pH 8, BHT 100 ppm): 73%
Apigenin retention ratio (amount of apigenin stored at 50° C./amount of apigenin stored at −5° C.) (pH 8, BHT 500 ppm): 11%
SMILES: O=c1cc(-c2ccc(O)cc2)oc2cc(O)cc(O)c12 [Apigenin, apigenin]
